According to US20230278996A1, “YKL-40 INHIBITORS AND THEIR THERAPEUTIC APPLICATIONS” (Molecure S.A., priority 2022, published 2023):
Counter-ions that a name gives are not always drawn.

Biological target: YKL-40 (Homo sapiens (Human), UniProt P36222)
Assay: YKL-40:4 assay, competitive chitin binding site AlphaScreen
Settings: competition with biotinylated compound 4 (20 nM), YKL-40-histag 2.5 nM

YKL-40, sequence (P36222 22-383): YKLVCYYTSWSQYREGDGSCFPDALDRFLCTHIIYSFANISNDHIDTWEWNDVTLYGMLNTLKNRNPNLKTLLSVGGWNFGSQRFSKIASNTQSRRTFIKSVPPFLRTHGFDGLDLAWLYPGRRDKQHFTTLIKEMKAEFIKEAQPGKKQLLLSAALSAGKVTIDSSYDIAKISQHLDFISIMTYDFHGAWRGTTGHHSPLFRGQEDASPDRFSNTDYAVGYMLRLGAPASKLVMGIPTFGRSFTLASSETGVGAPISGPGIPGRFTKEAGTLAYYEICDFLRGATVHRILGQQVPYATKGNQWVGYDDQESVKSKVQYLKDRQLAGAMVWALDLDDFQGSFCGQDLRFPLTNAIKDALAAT

| IC50 [nM] | SMILES |
| --- | --- |
| > 100000 | C[C@H]1CN(C2CCN(c3ccccc3C#N)CC2)[C@@H](Cc2ccc(Cl)cc2)CO1 [compound 119, 2-(4-((2S,5S)-5-(4-chlorobenzyl)-2-methylmorpholino)piperidin-1-yl)benzonitrile 2,2,2-trifluoroacetate] |
| 1000 to 10000 | C[C@H]1CN(C2CCN(c3ccc(F)cn3)CC2)[C@@H](Cc2ccc(Cl)cc2)CO1 [Example 9, (2S,5S)-5-(4-chlorobenzyl)-4-(1-(5-fluoropyridin-2-yl)piperidin-4-yl)-2-methylmorpholine 2,2,2-trifluoroacetate] |
| > 100000 | COC(=O)c1ccnc(N2CCC(N3C[C@H](C)OC[C@@H]3Cc3ccc(Cl)cc3)CC2)c1F [compound 122, methyl 2-(4-((2S,5S)-5-(4-chlorobenzyl)-2-methylmorpholino)piperidin-1-yl)-3-fluoroisonicotinate] |
| > 100000 | COc1ncnc(N2CCC(N3C[C@H](C)OC[C@@H]3Cc3ccc(Cl)cc3)CC2)n1 [compound 171, (2S,5S)-5-(4-chlorobenzyl)-4-(1-(4-methoxy-1,3,5-triazin-2-yl)piperidin-4-yl)-2-methylmorpholine 2,2,2-trifluoroacetate] |
| > 100000 | C[C@H]1CN(C2CCN(c3cc(=O)[nH]cn3)CC2)[C@@H](Cc2ccc(Cl)cc2)CO1 [compound 167, 6-(4-((2S,5S)-5-(4-chlorobenzyl)-2-methylmorpholino)piperidin-1-yl)pyrimidin-4(3H)-one 2,2,2-trifluoroacetate] |
| > 100000 | C[C@H]1CN(C2CCN(c3cnc(C(F)(F)F)cn3)CC2)[C@@H](Cc2ccc(Cl)cc2)CO1 [compound 158, (2S,5S)-5-(4-chlorobenzyl)-2-methyl-4-(1-(5-(trifluoromethyl)pyrazin-2-yl)piperidin-4-yl)morpholine hydrochloride] |
| 100 to 1000 | CC(=O)NC[C@H]1CN(C2CCN(c3ncccn3)CC2)[C@@H](Cc2ccc(Cl)cc2)CO1 [compound 75, N-(((2S,5S)-5-(4-chlorobenzyl)-4-(1-(pyrimidin-2-yl)piperidin-4-yl)morpholin-2-yl)methyl)acetamide 2,2,2-trifluoroacetate] |
| > 100000 | C[C@H]1CN(C2CCN(c3ccnc(N)n3)CC2)[C@@H](Cc2ccc(Cl)cc2)CO1 [compound 67, 4-(4-((2S,5S)-5-(4-chlorobenzyl)-2-methylmorpholino)piperidin-1-yl)pyrimidin-2-amine 2,2,2-trifluoroacetate] |
| > 100000 | CC(C)C1OC[C@H](Cc2ccc(Cl)cc2)N1C1CCN(c2ccccn2)CC1 (stereo partly drawn) [compound 150, (4S)-4-(4-chlorobenzyl)-2-isopropyl-3-(1-(pyridin-2-yl)piperidin-4-yl)oxazolidine hydrochloride] |
| 100 to 1000 | COCCOCCOCCOCCOCCOCCOCCOCCOCCOCCOCCOCCC(=O)OC[C@H]1CN(C2CCN(c3ccccn3)CC2)[C@@H](Cc2ccc(Cl)cc2)CO1 [Example 7, ((2R,5S)-5-(4-chlorobenzyl)-4-(1-(pyridin-2-yl)piperidin-4-yl)morpholin-2-yl)methyl 2,5,8,11,14,17,20,23,26,29,32,35-dodecaoxaoctatriacontan-38-oate 2,2,2-trifluoroacetate] |
| > 100000 | C[C@H]1CN(C2CCN(c3cc(Cl)ccc3C#N)CC2)[C@@H](Cc2ccc(Cl)cc2)CO1 [compound 115, 4-chloro-2-(4-((2S,5S)-5-(4-chlorobenzyl)-2-methylmorpholino)piperidin-1-yl)benzonitrile 2,2,2-trifluoroacetate] |
| > 100000 | C[C@H]1CN(C2CCN(c3ncns3)CC2)[C@@H](Cc2ccc(Cl)cc2)CO1 [compound 179, (2S,5S)-4-(1-(1,2,4-thiadiazol-5-yl)piperidin-4-yl)-5-(4-chlorobenzyl)-2-methylmorpholine 2,2,2-trifluoroacetate] |
| 100 to 1000 | CN1CCN(C2CCN(c3ccccn3)CC2)[C@@H](Cc2ccc(Cl)cc2)C1 [compound 64, (S)-2-(4-chlorobenzyl)-4-methyl-1-(1-(pyridin-2-yl)piperidin-4-yl)piperazine 2,2,2-trifluoroacetate] |
| 100 to 1000 | Cc1ccnc(N2CCC(N3C[C@@H]4C[C@H](O)CN4C[C@@H]3Cc3ccc(Cl)cc3)CC2)n1 [Example 43, (3S,7S,8aS)-3-(4-chlorobenzyl)-2-(1-(4-methylpyrimidin-2-yl)piperidin-4-yl)octahydropyrrolo[1,2-α]pyrazin-7-ol 2,2,2-trifluoroacetate] |
| 100 to 1000 | C[C@H]1CN(c2ccc(-c3ccccn3)cc2)[C@@H](Cc2ccc(Cl)cc2)CO1 [compound 159, (2S,5S)-5-(4-chlorobenzyl)-2-methyl-4-(4-(pyridin-2-yl)phenyl)morpholine hydrochloride] |
| > 100000 | C[C@H]1CN(C2CCN(c3cc(C(F)(F)F)ncn3)CC2)[C@@H](Cc2ccc(Cl)cc2)CO1 [compound 145, (2S,5S)-5-(4-chlorobenzyl)-2-methyl-4-(1-(6-(trifluoromethyl)pyrimidin-4-yl)piperidin-4-yl)morpholine hydrochloride] |
| 10000 to 100000 | CC[C@H]1CN(C2CCN(c3ccccn3)CC2)[C@@H](Cc2ccc(Cl)cc2)CN1C [compound 93, (2S,5S)-2-(4-chlorobenzyl)-5-ethyl-4-methyl-1-(1-(pyridin-2-yl)piperidin-4-yl)piperazine 2,2,2-trifluoroacetate] |
| > 100000 | C[C@H]1CN(C2CCN(c3cc(CO)ccn3)CC2)[C@@H](Cc2ccc(Cl)cc2)CO1 [compound 130, (2-(4-((2S,5S)-5-(4-chlorobenzyl)-2-methylmorpholino)piperidin-1-yl)pyridin-4-yl)methanol 2,2,2-trifluoroacetate] |
| 100 to 1000 | C[C@H]1CN(C2CCN(c3ccccn3)CC2)[C@@H](Cc2ccc(Cl)cc2)CN1CC(=O)NC1CC1 [compound 103, 2-((2S,5S)-5-(4-chlorobenzyl)-2-methyl-4-(1-(pyridin-2-yl)piperidin-4-yl)piperazin-1-yl)-N-cyclopropylacetamide 2,2,2-trifluoroacetate] |
| 100 to 1000 | CC1CC(N2C[C@H](C)OC[C@@H]2Cc2ccc(Cl)cc2)CCN1c1cc(Cl)ccn1 (stereo partly drawn) [Example 34, (2S,5S)-5-(4-chlorobenzyl)-4-(1-(4-chloropyridin-2-yl)-2-methylpiperidin-4-yl)-2-methylmorpholine 2,2,2-trifluoroacetate] |
| > 100000 | COC(=O)c1cccnc1N1CCC(N2C[C@H](C)OC[C@@H]2Cc2ccc(Cl)cc2)CC1 [compound 117, methyl 2-(4-((2S,5S)-5-(4-chlorobenzyl)-2-methylmorpholino)piperidin-1-yl)nicotinate 2,2,2-trifluoroacetate] |
| > 100000 | Cc1ncnc(N2CCC(N3C[C@H](C)OC[C@@H]3Cc3ccc(Cl)cc3)CC2)n1 [compound 172, (2S,5S)-5-(4-chlorobenzyl)-2-methyl-4-(1-(4-methyl-1,3,5-triazin-2-yl)piperidin-4-yl)morpholine 2,2,2-trifluoroacetate] |
| > 100000 | C[C@H]1CN(C2CCN(c3cccc(F)c3)CC2)[C@@H](Cc2ccc(Cl)cc2)CO1 [compound 127, (2S,5S)-5-(4-chlorobenzyl)-4-(1-(3-fluorophenyl)piperidin-4-yl)-2-methylmorpholine 2,2,2-trifluoroacetate] |
| > 100000 | C[C@H]1CN(C2CCN(c3cccnc3)CC2)[C@@H](Cc2ccc(Cl)cc2)CO1 [Example 27, (2S,5S)-5-(4-chlorobenzyl)-2-methyl-4-(1-(pyridin-3-yl)piperidin-4-yl)morpholine 2,2,2-trifluoroacetate] |

| SMILES | IC50 [nM] |
| --- | --- |
| CC1(O)CCN(C2CCN(c3ccccn3)CC2)[C@@H](Cc2ccc(Cl)cc2)C1 (stereo partly drawn) [compound 92, (2S)-2-(4-chlorobenzyl)-4-methyl-1′-(pyridin-2-yl)-[1,4′-bipiperidin]-4-ol 2,2,2-trifluoroacetate] | < 100 |
| CN1C[C@H](Cc2ccc(Cl)cc2)N(C2CCN(c3ccccn3)CC2)CC12CCC2 [compound 148, (S)-7-(4-chlorobenzyl)-5-methyl-8-(1-(pyridin-2-yl)piperidin-4-yl)-5,8-diazaspiro[3.5]nonane hydrochloride] | 100 to 1000 |
| C[C@H]1CN(C2CCN(c3ncc(C(F)(F)F)o3)CC2)[C@@H](Cc2ccc(Cl)cc2)CO1 [compound 168, (2S,5S)-5-(4-chlorobenzyl)-2-methyl-4-(1-(5-(trifluoromethyl)oxazol-2-yl)piperidin-4-yl)morpholine 2,2,2-trifluoroacetate] | > 100000 |
| Clc1ccc(C[C@H]2COCCN2C2CCN(c3ccccn3)CC2)cc1 [compound 88, (S)-3-(4-chlorobenzyl)-4-(1-(pyridin-2-yl)piperidin-4-yl)morpholine 2,2,2-trifluoroacetate] | 100 to 1000 |
| Clc1ccc(C[C@H]2CN3CCOC[C@H]3CN2C2CCN(c3ccccn3)CC2)cc1 [compound 155, (7S,9aR)-7-(4-chlorobenzyl)-8-(1-(pyridin-2-yl)piperidin-4-yl)octahydropyrazino[2,1-c][1,4]oxazine hydrochloride] | < 100 |
| C[C@H]1CN(C2CCN(c3cc(F)ncn3)CC2)[C@@H](Cc2ccc(Cl)cc2)CO1 [Example 24, (2S,5S)-5-(4-chlorobenzyl)-4-(1-(6-fluoropyrimidin-4-yl)piperidin-4-yl)-2-methylmorpholine 2,2,2-trifluoroacetate] | > 100000 |
| CN(C)C(=O)OC[C@H]1CN(C2CCN(c3ncccn3)CC2)[C@@H](Cc2ccc(Cl)cc2)CO1 [compound 70, ((2R,5S)-5-(4-chlorobenzyl)-4-(1-(pyrimidin-2-yl)piperidin-4-yl)morpholin-2-yl)methyl dimethylcarbamate 2,2,2-trifluoroacetate] | 1000 to 10000 |
| CN1C[C@H](Cc2ccc(Cl)cc2)N(C2CCN(c3cc(Cl)ccn3)CC2)C[C@@H]1CO [compound 50, ((2R,5S)-5-(4-chlorobenzyl)-4-(1-(4-chloropyridin-2-yl)piperidin-4-yl)-1-methyl-piperazin-2-yl)methanol] | < 100 |
| C[C@@H](O)CN1C[C@H](Cc2ccc(Cl)cc2)N(C2CCN(c3ccccn3)CC2)C[C@@H]1C [compound 102, (R)-1-((2S,5S)-5-(4-chlorobenzyl)-2-methyl-4-(1-(pyridin-2-yl)piperidin-4-yl)piperazin-1-yl)propan-2-ol 2,2,2-trifluoroacetate] | 100 to 1000 |
